Results on 31 compounds are retold here after article PMC8286840, “Identifying SARS-CoV-2 antiviral compounds by screening for small molecule inhibitors of Nsp3 papain-like protease” (Biochemical Journal, 2021).

Assay [1] addresses T1, SARS-CoV-2 PLpro (nsp3 1564–1878) (Severe acute respiratory syndrome coronavirus 2, UniProt P0DTD1). Nature of the assay: biochemical. Details: FRET-quenched peptide (Pro3) cleavage by PLpro, 10 min pre-incubation, slope over 20 min, normalised to no-compound control. As to conditions: read-out: % of control remaining.
Assay [2] has as its target T1, SARS-CoV-2 PLpro (nsp3 1564–1878). Description: biochemical. The note with it: read-out: % of control remaining. Details: FRET-quenched peptide (Pro3) cleavage by PLpro, 10 min pre-incubation, slope over 20 min, normalised to no-compound control. This is another data set of the same source.

Structures can show the parent of a compound that is named as a salt. Where two headings read alike, the source gives them in different places.

On to `COc1ccc(-c2oc3c(CC=C(C)C)c(O)cc(O)c3c(=O)c2O[C@@H]2O[C@@H](C)[C@H](O)[C@@H](O)[C@H]2O)cc1` [Baohuoside I], for which the remaining activity at 1.25 µM amounted to 108% in assay [1] (Well no.=6684, low concentration screen) and 101% in assay [1] (Well no.=7047, low concentration screen). Moreover, the remaining activity at 3.75 µM stood at 102% in assay [2] (Well no.=6684, high concentration screen); 96.4% in assay [2] (Well no.=7047, high concentration screen); 99.8% in assay [2] (Well no.=8129, high concentration screen).
For the compound `COc1cc(NC(=O)CCN2CCC(OC(=O)Nc3ccccc3-c3ccccc3)CC2)c(Cl)cc1CNC[C@H](O)c1ccc(O)c2[nH]c(=O)ccc12` [Batefenterol], the remaining activity at 1.25 µM in assay [1] (Well no.=7045, low concentration screen) was 106%. Besides, in assay [2] (Well no.=7045, high concentration screen), the remaining activity at 3.75 µM was determined as 109%.
`COc1cc2c(cc1CC=C(C)C)C(=O)C[C@@H](c1ccc(O)cc1)O2` [Bavachinin A]: the remaining activity at 1.25 µM in assay [1] (Well no.=3243, low concentration screen) turned out to be 100%. Moreover, the remaining activity at 3.75 µM in assay [2] (Well no.=3243, high concentration screen) is 99%.
As to `CC(C)(C)c1ccc(S(=O)(=O)/C=C/C#N)cc1` [Bay 11-7085], the remaining activity at 1.25 µM in assay [1] (Well no.=127, low concentration screen) is 105%. Besides, in assay [2] (Well no.=127, high concentration screen), the remaining activity at 3.75 µM is 105%.
`N#Cc1c(Oc2cccc(OS(=O)(=O)CCCC(F)(F)F)c2)cccc1C(F)(F)F` [Bay 59-3074]: in assay [1] (Well no.=8043, low concentration screen), the remaining activity at 1.25 µM came out at 96.7%. Moreover, the remaining activity at 3.75 µM in assay [2] (Well no.=8043, high concentration screen) was determined as 96.5%.
As for `Cc1c(-c2ccc(O)cc2)n(Cc2ccc(OCCN3CCCCCC3)cc2)c2ccc(O)cc12` [Bazedoxifene HCl], the remaining activity at 1.25 µM in assay [1] (Well no.=5100, low concentration screen) came out at 105%. Further, in assay [2] (Well no.=5100, high concentration screen), the remaining activity at 3.75 µM worked out at 105%.
Take `CCC(=O)OCC(=O)[C@@]1(OC(=O)CC)[C@@H](C)C[C@H]2[C@@H]3CCC4=CC(=O)C=C[C@]4(C)[C@@]3(Cl)[C@@H](O)C[C@@]21C` [Beclometasone dipropionate]: the remaining activity at 1.25 µM in assay [1] (Well no.=7615, low concentration screen) turned out to be 101%. Besides, the remaining activity at 3.75 µM in assay [2] (Well no.=7615, high concentration screen) was determined as 96.1%.
Consider `C[C@H]1C[C@H]2[C@@H]3CCC4=CC(=O)C=C[C@]4(C)[C@@]3(Cl)[C@@H](O)C[C@]2(C)[C@@]1(O)C(=O)CO` [Beclomethasone], for which the remaining activity at 1.25 µM in assay [1] (Well no.=356, low concentration screen) is 95.3%. Besides, the remaining activity at 3.75 µM in assay [2] (Well no.=356, high concentration screen) came to 100%.
Turning to `O=C(/C=C/c1cccc(S(=O)(=O)Nc2ccccc2)c1)NO` [Belinostat (PXD101)], the remaining activity at 1.25 µM in assay [1] (Well no.=5009, low concentration screen) was 98.9%. Further, the remaining activity at 3.75 µM in assay [2] (Well no.=5009, high concentration screen) is 91.9%.
As to `CCO[C@@H]1OC(=O)C[C@@H]1NC(=O)[C@@H]1CCCN1C(=O)[C@@H](NC(=O)c1ccc(N)c(Cl)c1)C(C)(C)C` [Belnacasan], the remaining activity at 1.25 µM worked out at 98% in assay [1] (Well no.=6502, low concentration screen) and 103% in assay [1] (Well no.=8460, low concentration screen). For the same compound, the remaining activity at 3.75 µM in assay [2] (Well no.=6502, high concentration screen) is 98.4%; in assay [2] (Well no.=8460, high concentration screen), 110%.
Regarding `CCOC(=O)[C@H](CCc1ccccc1)N[C@H]1CCc2ccccc2N(CC(=O)O)C1=O` [Benazepril (hydrochloride)], the remaining activity at 1.25 µM in assay [1] (Well no.=7786, low concentration screen) worked out at 104%. Also, in assay [2] (Well no.=7786, high concentration screen), the remaining activity at 3.75 µM came out at 104%.
`CCOC(=O)[C@H](CCc1ccccc1)N[C@H]1CCc2ccccc2N(CC(=O)O)C1=O` [Benazepril HCl]: the remaining activity at 1.25 µM in assay [1] (Well no.=5153, low concentration screen) came to 97.7%. For the same compound, in assay [2] (Well no.=5153, high concentration screen), the remaining activity at 3.75 µM was 101%.
Take `COc1cccc(OC)c1OCCNCC1CSc2ccccc2O1` (stereo not shown) [Benoxathian hydrochloride]: in assay [1] (Well no.=323, low concentration screen), the remaining activity at 1.25 µM was determined as 99.7%. Moreover, in assay [2] (Well no.=323, high concentration screen), the remaining activity at 3.75 µM was determined as 93.6%.
Consider `NC(CO)C(=O)NNCc1ccc(O)c(O)c1O` (stereo not shown) [Benserazide hydrochloride], for which, in assay [1] (Well no.=367, low concentration screen), the remaining activity at 1.25 µM came to 96.9%. The remaining activity at 3.75 µM in assay [2] (Well no.=367, high concentration screen) was found to be 96.5%.
As to `NC(CO)C(=O)NNCc1ccc(O)c(O)c1O` (stereo not shown) [Benserazide], the remaining activity at 1.25 µM in assay [1] (Well no.=1903, low concentration screen) came to 97.8%. The remaining activity at 3.75 µM in assay [2] (Well no.=1903, high concentration screen) is 97.7%.
For `NC(=O)c1ccccc1` [Benzamide], the remaining activity at 1.25 µM in assay [1] (Well no.=358, low concentration screen) came to 96.5%. Also, the remaining activity at 3.75 µM in assay [2] (Well no.=358, high concentration screen) amounted to 95.9%.
As to `N=C(N)c1ccccc1` [Benzamidine hydrochloride], the remaining activity at 1.25 µM in assay [1] (Well no.=223, low concentration screen) was 99.2%. In assay [2] (Well no.=223, high concentration screen), the remaining activity at 3.75 µM came out at 99%.
With `N/C(=N\C(=O)c1nc(Cl)c(N)nc1N)NCc1ccccc1` [Benzamil hydrochloride], the remaining activity at 1.25 µM in assay [1] (Well no.=267, low concentration screen) came out at 95.3%. In addition, in assay [2] (Well no.=267, high concentration screen), the remaining activity at 3.75 µM was found to be 92.2%.
On to `N/C(=N\C(=O)c1nc(Cl)c(N)nc1N)NCc1ccccc1` [Benzamil], for which the remaining activity at 1.25 µM in assay [1] (Well no.=2050, low concentration screen) is 104%. Also, the remaining activity at 3.75 µM in assay [2] (Well no.=2050, high concentration screen) was determined as 104%.
Turning to `CCc1oc2ccccc2c1C(=O)c1cc(Br)c(O)c(Br)c1` [Benzbromarone], the remaining activity at 1.25 µM in assay [1] (Well no.=8442, low concentration screen) turned out to be 86.8%. For the same compound, the remaining activity at 3.75 µM in assay [2] (Well no.=8442, high concentration screen) amounted to 85.1%.
On to `NS(=O)(=O)c1ccccc1` [Benzenesulfonamide], for which the remaining activity at 1.25 µM in assay [1] (Well no.=8398, low concentration screen) was found to be 97.6%. Further, the remaining activity at 3.75 µM in assay [2] (Well no.=8398, high concentration screen) stood at 101%.
Take `O=C1CCC(c2ccccc2)(C2CCN(Cc3ccccc3)CC2)C(=O)N1` (stereo not shown) [Benzetimide (hydrochloride)]: in assay [1], the remaining activity at 1.25 µM is 99.9%. In addition, the remaining activity at 3.75 µM in assay [2] is 97.6%.
As for `C[C@@]12C[C@@]3(O)O[C@@H](O1)[C@]1(COC(=O)c4ccccc4)[C@H]3C[C@@]12O[C@@H]1O[C@H](COC(=O)c2ccccc2)[C@@H](O)[C@H](O)[C@H]1O` [Benzoylpaeoniflorin], in assay [1] (Well no.=6394, low concentration screen), the remaining activity at 1.25 µM was found to be 101%. Besides, the remaining activity at 3.75 µM in assay [2] (Well no.=6394, high concentration screen) is 98.2%.
In the case of `NS(=O)(=O)c1cc2c(cc1Cl)N=C(CSCc1ccccc1)NS2(=O)=O` [Benzthiazide], the remaining activity at 1.25 µM in assay [1] (Well no.=8586, low concentration screen) came out at 98.4%. For the same compound, the remaining activity at 3.75 µM in assay [2] (Well no.=8586, high concentration screen) was 93.6%.
Turning to `CN1[C@@H]2CC[C@H]1C[C@@H](OC(c1ccccc1)c1ccccc1)C2` [Benztropine (mesylate)], the remaining activity at 1.25 µM in assay [1] (Well no.=8235, low concentration screen) came to 100%. Also, the remaining activity at 3.75 µM in assay [2] (Well no.=8235, high concentration screen) is 99.9%.
As for `CN1[C@@H]2CC[C@H]1C[C@@H](OC(c1ccccc1)c1ccccc1)C2` [Benztropine mesylate], the remaining activity at 1.25 µM in assay [1] (Well no.=177, low concentration screen) stood at 104%. Moreover, the remaining activity at 3.75 µM in assay [2] (Well no.=177, high concentration screen) turned out to be 104%.
In the case of `CN(C)CCCOc1nn(Cc2ccccc2)c2ccccc12` [Benzydamine], the remaining activity at 1.25 µM in assay [1] (Well no.=2302, low concentration screen) is 95.4%. Also, the remaining activity at 3.75 µM in assay [2] (Well no.=2302, high concentration screen) is 96.1%.
As to `O=C(O)CCCN1CCC(O[C@@H](c2ccc(Cl)cc2)c2ccccn2)CC1` [Bepotastine (Beslilate)], in assay [1] (Well no.=6333, low concentration screen), the remaining activity at 1.25 µM came out at 97.3%. Moreover, in assay [2] (Well no.=6333, high concentration screen), the remaining activity at 3.75 µM amounted to 93.3%.
On to `O=C(O)CCCN1CCC(O[C@@H](c2ccc(Cl)cc2)c2ccccn2)CC1` [Bepotastine Besilate], for which the remaining activity at 1.25 µM in assay [1] (Well no.=5267, low concentration screen) worked out at 91.9%. Moreover, the remaining activity at 3.75 µM in assay [2] (Well no.=5267, high concentration screen) is 91.2%.
As to `COc1c2ccoc2cc2oc(=O)ccc12` [Bergapten], the remaining activity at 1.25 µM in assay [1] (Well no.=3789, low concentration screen) was 92.7%. In addition, the remaining activity at 3.75 µM in assay [2] (Well no.=3789, high concentration screen) came to 87%.
As to `COc1c(O)cc2c(c1O)[C@@H]1O[C@H](CO)[C@@H](O)[C@H](O)[C@H]1OC2=O` [Bergenin], the remaining activity at 1.25 µM in assay [1] (Well no.=3517, low concentration screen) stood at 103%. In addition, in assay [2] (Well no.=3517, high concentration screen), the remaining activity at 3.75 µM amounted to 107%.
